Test results published in patent publication US10072021B2, “Compound for inhibiting binding between DX2 protein and P14/ARF protein, and pharmaceutical composition for treating or preventing cancer disease containing same as effective ingredient” (PUSAN NATIONAL UNIVERSITY INDUSTRY-UNIVERSITY COOPERATION …, priority 2014, dated 2018).
“Also recorded” adds a separate entry of the source.

Assays:
[1] = tested on: p53; test: p53 induction in primary tumor cells (western blotting); type: cell-based; settings: combinational treatment with Adriamycin and SLCB050, primary tumor cells from DX2 or DK mouse, FIG. 9C
Procedure: To carry out western blot analysis, proteins were thermally inactivated in RIPA buffer (heat treatment for 7 minutes at a temperature of 95° C.), and then, the resulting proteins were applied to SDS-PAGE, followed by western blot analysis according to a known method in the art (J. Clin. Oncol. 16, 1207-1217, 1998; Nat. Rev. Cancer 2, 489-501, 2002). Antibodies used herein, e.g., HA (sc-7392), His (sc-8036), GFP (sc-9996), GST (sc-138), Actin (se-1616), and p19/ARF (sc-32748), were purchased from Santa Cruz Biochnology, anti-p14/ARF (MAB3782) was purchased from Millipore, and FLAG-M2 and anti-C-Myc (M5546) were purchased from Sigma Aldrich. In addition, anti-AIMP2 was provided from Professor. Kim, Sung-Hoon (Seoul Nat. Univ.).

[2] = target: T1, p53-p14/ARF interaction (Homo sapiens, UniProt P04637+Q8N726); test: GST pull-down assay, selectivity: p53-p14/ARF interaction; type: binding; settings: FIG. 3D, 3E
T1 construct: a p14/ARF fragment (full-length) was ligated into EcoRI and Hind II sites of pGEX-TEV vector; made in house; host or cells: E. coli BL21(DE3) for GST-p14/ARF
Text: Through GST pull-down assays, more specific binding inhibitors were selected among the previously screened candidate drugs as DX2-p14/ARF binding inhibitors. That is, a p14/ARF fragment (full-length) was ligated into EcoRI and Hind II sites of pGEX-TEV vector, which is a modified vector by adding a TEV protease cleavage site to pGEX-4T1. The recombinant proteins were then expressed in E. coli strain BL21(DE3) as GST-fusion proteins. The proteins were purified by glutathione affinity chromatography.
To address direct binding between the two proteins, agarose-bead conjugated GST (negative control) or GST-target protein was incubated with cell lysate or recombinant protein in radioimmunoprecipitation assay (RIPA) buffer (NaCl, 25 mM Tris-Cl, 1% NP-40, 1% sodium deoxycholate, 0.1% SDS, protease inhibitor mixture) for 1 hour at a temperature of 4° C. for a reaction.

[3] = tested on: H128 cells (SCLC cell line); test: Soft agar colony formation assay in H128 cells; type: cell-based, human; settings: 48 hours, trypan blue staining, FIG. 6
Procedure: H128 cells which are SCLC cell lines were seeded in soft agar plates and allowed to react with SLCB050 for 48 hours, and then, the cells were examined after staining the cells with trypan blue.

[4] = tested on: DX2 and DK MEFs; primary tumor cells from DX2 and DK mice; test: Reduction of anticancer drug resistance in DX2 and DK MEFs or primary tumor cells (MTT); type: cell-based, mouse
Procedure: By MTT assay, anticancer effects were confirmed based on viability of tumor cells. That is, cells were incubated in 0.5 mg/ml of MTT solution for 4 hours at a temperature of 37° C. for a reaction, and then, formazen products formed therefrom were dissolved in dimethyl sulfoxide (DMSO). Then, absorbance thereof was measured at 540 nm by using a spectrometer.

[5] = target: T2, DX2-p14/ARF interaction (Homo sapiens, UniProt Q13155); test: Immunoprecipitation analysis of DX2-p14/ARF interaction in cotransfected 293 cells; type: cell-based; settings: MG132, SLCB050 10 μM, 6 hours, IP with Myc antibodies
T2 construct: expressed in transfected cells; host or cells: 293 (HEK293) cells
T2 sequence (Q13155 1-251 isoform Q13155-2): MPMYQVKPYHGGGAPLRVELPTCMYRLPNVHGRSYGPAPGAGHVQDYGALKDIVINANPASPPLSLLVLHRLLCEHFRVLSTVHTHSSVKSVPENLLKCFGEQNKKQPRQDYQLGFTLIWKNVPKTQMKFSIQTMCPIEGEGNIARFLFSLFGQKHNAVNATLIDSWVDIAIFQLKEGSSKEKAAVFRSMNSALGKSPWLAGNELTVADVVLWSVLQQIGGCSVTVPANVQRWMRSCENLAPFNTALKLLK
Procedure: Here, contransfected 293 cells were allowed to react with MG132 before immunoprecipitation analysis to prevent reduction of two proteins, and after performing SLCB050 treatment (10 μM, 6 hours), immunoprecipitation assay was performed on the cells by using Myc antibodies (DX2).
Here, 293 cells were transfected with indicating vectors for 24 hours and was allowed to react with MG132 and SLCB050 for 6 hours.
Immunoprecipitation (IP) assay was performed with cell lysate or recombinant protein with RIPA buffer. The whole lysates were incubated with suitable antibodies for 2 hours at a temperature of 4° C. for a reaction, and then, the mixtures were added with A/G-agarose beads-conjugated secondary antibody (Invitrogen, Carlsbad, Calif., USA) for 2 hours. After incubation for a reaction, the mixtures were washed using RIPA buffer twice, and precipitated proteins were determined by western blot analysis.

[6] = target: T3, DX2-p14/ARF binding (His-DX2, GST-p14/ARF) (Homo sapiens, UniProt Q13155); test: ELISA-based screening for inhibitors of DX2-p14/ARF binding; settings: ELISA values at 450 nm
T3 construct: made in house; host or cells: E. coli BL21(DE3) (stated for the GST fusion)
T3 sequence (Q13155 1-251 isoform Q13155-2): T2 sequence (Q13155 1-251 isoform Q13155-2)
Procedure: In detail, referring to drawings, the compound according to an embodiment of the present invention which is a specific binding inhibitor of DX2 and p14/ARF was screened by using an ELISA-based screening method of FIG. 1. Based on the screening reaction system, increases in ELISA values with increasing concentrations of p14/ARF were measured. […] Thus, by using the ELISA-based screening method, compounds that are specific binding inhibitors of DX2 and p14/ARF were primarily screened.
That is, 0.5% His-DX2 recombinant proteins were immobilized on a 96-well plate with paraformaldehyde (PFA). After performing drying and cleaning processes, GST-p14/ARF proteins were allowed to react with a random compound (final concentration: 0.1 mM). After 1 hour, the plate was washed using TBS-T, and then, incubated with anti-GST antibodies (1:10,000, 30 minutes) and anti-mouse-IgG-HRP (1:50,000, 1 hour). After performing a washing process twice, the plate was incubated with 3,3′,5,5′-tetramethylbenzidine (TMB) solution (Calbiochem) and stop solution (1N H2SO4) for a reaction. Afterwards, by using an ELISA reader, values were measured at 450 nm, thereby selecting candidate drugs as DX2-p14/ARF binding inhibitors. […]

T1 sequence (Q8N726 whole entry, the tested form may be a part): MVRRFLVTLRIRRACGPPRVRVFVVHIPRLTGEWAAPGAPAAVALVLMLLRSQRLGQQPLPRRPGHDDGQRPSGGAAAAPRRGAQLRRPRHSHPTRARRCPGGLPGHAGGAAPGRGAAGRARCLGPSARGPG
T1 sequence (P04637 whole entry, the tested form may be a part): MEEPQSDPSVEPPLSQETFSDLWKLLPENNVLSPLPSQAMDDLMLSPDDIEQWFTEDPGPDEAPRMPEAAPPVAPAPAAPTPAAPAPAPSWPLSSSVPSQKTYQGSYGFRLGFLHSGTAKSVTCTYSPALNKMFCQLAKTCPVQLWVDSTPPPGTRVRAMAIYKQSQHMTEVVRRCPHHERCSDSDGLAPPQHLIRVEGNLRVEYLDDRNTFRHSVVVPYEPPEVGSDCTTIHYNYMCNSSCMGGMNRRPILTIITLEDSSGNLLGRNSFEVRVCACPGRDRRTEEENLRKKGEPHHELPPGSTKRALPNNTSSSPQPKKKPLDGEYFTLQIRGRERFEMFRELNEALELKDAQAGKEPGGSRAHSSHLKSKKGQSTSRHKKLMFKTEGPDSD

CC1(C)Oc2cc3oc(=O)ccc3cc2C[C@@H]1OC(=O)/C=C/c1ccco1 [SLCB050, (7S)-(+)-3-(2-Furanyl)-acrylic acid, 8,8-dimethyl-2-oxo-6,7-dihydro-2H,8H-pyrano[3,2-g]chromen-7-yl-ester]
p53 induction in primary tumor cells [1]: induced p53 synergistically | effect on interaction of p53-p14/ARF [2]: did not affect the interaction of p53-p14/ARF | number of colonies / H128 cell growth in soft agar [3]: completely suppressed the H128 cell growth; also recorded: reduced the number of colonies in a dose-dependent manner | resistance to Adriamycin in primary tumor cells from DX2 and DK mice ([4]; Adriamycin 0.2 μg/ml with SLCB050 10 μM, 24 hours, FIG. 8B): resistance to Adriamycin was also abolished | resistance to GN25 in DX2 and DK MEFs ([4]; GN25 5 μM with SLCB050 10 or 20 μM, 6 hours, FIG. 8A): resistance to GN25 in DX2 and DK cells was abolished | interaction of p14/ARF with DX2 in cells [5]: inhibited the interaction of p14/ARF with DX2 in cells | ELISA reaction of DX2-p14/ARF binding [6]: considerably reduced
